# Results from PubChem BioAssay (NCI).
#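 Exposure lasted 48 hours, with cells grown in 96-well plates and compounds tested at five concentrations. GI50: concentration for 50% inhibition of growth. At the TGI there is no net growth.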
# Columns and labels:
# Assay in all cases: NCI anticancer screen, dose series, 48 h
# [1] = test system: MDA-MB-231 breast
# [2] = test system: EKVX NSCLC
# [3] = test system: SK-MEL-2 melanoma
# [4] = test system: SF-268 CNS
# [5] = test system: U251 CNS
# [6] = test system: PC-3 prostate
# [7] = test system: NCI-H522 lung
# [8] = test system: SF-539 CNS
# [9] = test system: HOP-62 NSCLC
# [10] = test system: 786-0 renal
# [11] = test system: SK-MEL-5 melanoma
# [12] = test system: M14 melanoma
# [13] = test system: HS 578T breast
# [14] = test system: RPMI-8226 leukemia
# [15] = test system: SN12C renal
# [16] = test system: OVCAR-8 ovarian
# [17] = test system: SK-OV-3 ovarian
# [18] = test system: HL-60(TB) leukemia
# [19] = test system: DU-145 prostate
# [20] = test system: KM12 colon
# [21] = test system: SNB-19 CNS
# [22] = test system: NCI-H460 lung
# [23] = test system: SK-MEL-28 melanoma
# [24] = test system: UACC-257 melanoma
# [25] = test system: MCF7 breast
# [26] = test system: OVCAR-3 ovarian
# [27] = test system: SW-620 colon
# [28] = test system: MDA-MB-435
# [29] = test system: CAKI-1 renal
# [30] = test system: HCT-116 colon
# [31] = test system: HOP-92 NSCLC
# [32] = test system: UO-31 renal
# [33] = test system: NCI-H226 lung
# [34] = test system: SNB-75 CNS
# [35] = test system: MDA-MB-468 breast
# [36] = test system: SR leukemia
# [37] = test system: T-47D breast
# [38] = test system: NCI/ADR-RES ovarian
# [39] = test system: LOX IMVI melanoma
# [40] = test system: BT-549 breast
# [41] = test system: A549 NSCLC
# [42] = test system: CCRF-CEM leukemia
# [43] = test system: IGROV1 ovarian
# [44] = test system: HT29 colon
# [45] = test system: UACC-62 melanoma
# [46] = test system: OVCAR-5 ovarian
# [47] = test system: A498 renal
# [48] = test system: HCC-2998 colon
# [49] = test system: SF-295 CNS
# [50] = test system: OVCAR-4 ovarian
# [51] = test system: TK-10 renal
# [52] = test system: K-562 leukemia
# [53] = test system: ACHN renal
# [54] = test system: MALME-3M melanoma
# [55] = test system: COLO 205 colon
# [56] = test system: HCT-15 colon
# [57] = test system: NCI-H23 lung
# [58] = test system: RXF 393 renal
compound,measurement,setting,value
COc1ccc(-c2nc(S(=O)(=O)c3ccc(C)cc3)c(S(C)(=O)=O)o2)cc1,GI50,[1],1.73 µM
same,TGI,[1],3.35 µM
same,GI50,[2],11 µM
same,TGI,[2],25.4 µM
same,GI50,[3],14.3 µM
same,TGI,[3],27.7 µM
same,GI50,[4],12.5 µM
same,TGI,[4],30 µM
same,GI50,[5],17 µM
same,TGI,[5],31.7 µM
same,GI50,[6],11.1 µM
same,TGI,[6],25.6 µM
same,GI50,[7],1.66 µM
same,TGI,[7],3.28 µM
same,GI50,[8],1.83 µM
same,TGI,[8],3.8 µM
same,GI50,[9],20.2 µM
same,TGI,[9],40 µM
same,GI50,[10],1.64 µM
same,TGI,[10],3.47 µM
same,GI50,[11],12.8 µM
same,TGI,[11],26.2 µM
same,GI50,[12],1.95 µM
same,TGI,[12],4.59 µM
same,GI50,[13],5.35 µM
same,TGI,[13],34 µM
same,GI50,[14],3.05 µM
same,TGI,[14],17.3 µM
same,GI50,[15],4.94 µM
same,TGI,[15],17.6 µM
same,GI50,[16],10.5 µM
same,TGI,[16],27.1 µM
same,GI50,[17],18.5 µM
same,TGI,[17],35.1 µM
same,GI50,[18],1.8 µM
same,TGI,[18],6.14 µM
same,GI50,[19],2.57 µM
same,TGI,[19],6.82 µM
same,GI50,[20],16.2 µM
same,TGI,[20],32.2 µM
same,GI50,[21],15.1 µM
same,TGI,[21],28.3 µM
same,GI50,[22],10.1 µM
same,TGI,[22],24.1 µM
same,GI50,[23],3.2 µM
same,TGI,[23],11 µM
same,GI50,[24],9.8 µM
same,TGI,[24],23.1 µM
same,GI50,[25],2.14 µM
same,TGI,[25],6.1 µM
same,GI50,[26],1.83 µM
same,TGI,[26],3.37 µM
same,GI50,[27],1.66 µM
same,TGI,[27],3.32 µM
same,GI50,[28],5.3 µM
same,TGI,[28],19.6 µM
same,GI50,[29],2.82 µM
same,TGI,[29],9.83 µM
same,GI50,[30],1.78 µM
same,TGI,[30],3.34 µM
same,GI50,[31],3.03 µM
same,TGI,[31],11.6 µM
same,GI50,[32],3.43 µM
same,TGI,[32],15.3 µM
same,GI50,[33],16.9 µM
same,TGI,[33],38.5 µM
same,GI50,[34],11.3 µM
same,TGI,[34],23.7 µM
same,GI50,[35],1.6 µM
same,TGI,[35],3.23 µM
same,GI50,[36],2.83 µM
same,TGI,[36],> 100 µM
same,GI50,[37],2.03 µM
same,TGI,[37],4.55 µM
same,GI50,[38],12 µM
same,TGI,[38],37.5 µM
same,GI50,[39],1.56 µM
same,TGI,[39],2.96 µM
same,GI50,[40],3.39 µM
same,TGI,[40],10 µM
same,GI50,[41],18.9 µM
same,TGI,[41],39.4 µM
same,GI50,[42],2.38 µM
same,TGI,[42],6.43 µM
same,GI50,[43],7.16 µM
same,TGI,[43],20.4 µM
same,GI50,[44],2.09 µM
same,TGI,[44],4.37 µM
same,GI50,[45],7.59 µM
same,TGI,[45],20.4 µM
same,GI50,[46],10.9 µM
same,TGI,[46],23.1 µM
same,GI50,[47],14.3 µM
same,TGI,[47],27.4 µM
same,GI50,[48],7.61 µM
same,TGI,[48],21.1 µM
same,GI50,[49],14.6 µM
same,TGI,[49],27.8 µM
same,GI50,[50],3.1 µM
same,TGI,[50],11.1 µM
same,GI50,[51],7.76 µM
same,TGI,[51],21 µM
same,GI50,[52],2.91 µM
same,TGI,[52],> 100 µM
same,GI50,[53],1.72 µM
same,TGI,[53],3.11 µM
same,GI50,[54],1.45 µM
same,TGI,[54],2.79 µM
same,GI50,[55],2.21 µM
same,TGI,[55],4.95 µM
same,GI50,[56],1.96 µM
same,TGI,[56],4.2 µM
same,GI50,[57],5.57 µM
same,TGI,[57],19.1 µM
same,GI50,[58],1.47 µM
same,TGI,[58],2.94 µM
